Patent US12459921B2, “Isoindoline compound, preparation method, pharmaceutical composition and use thereof” (SHANGHAI INSTITUTE OF MATERIA MEDICA, CHINESE ACADEMY OF …, priority 2018, dated 2025)

Each compound was assayed on MM.1S cells (assay: Inhibitory effect on the proliferation of MM.1S, MTS cell viability test). Settings: Homo sapiens, MM1.S, 168 h, multiple myeloma MM.1S cells, 7 days incubation, read-out: Tumor cell inhibitory activity.
Format: cell-based
Procedure, shortened: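 Viability measured by MTS (OD490 minus OD690 background, 3-4 h) after a 7-day exposure of 20,000 MM.1S cells/well to 5-fold serially diluted compound, 0.2% DMSO final. Inhibition calculated relative to DMSO wells; IC50 curve-fitted, averaged over three repeats.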

| Compound | IC50 [nM] |
| --- | --- |
| O=C1CCC(N2Cc3c(CCCCCCOc4ccnc5ccccc45)cccc3C2=O)C(=O)N1 (stereo not shown) [Example 3, 3-(1-oxo-4-(6-(quinoline-4-oxy)hexyl)isoindoline-2-)piperidine-2,6-dione] | < 100 |
| CC(=O)N[C@@H](CCCc1cccc2c1CN(C1CCC(=O)NC1=O)C2=O)C(=O)N[C@H]1CCCc2ccccc21 (stereo partly drawn) [Example 179, (2S)-2-acetylamino-5-(2-(2,6-dioxopiperidine-3-)-1-oxoisoindoline-4-)-N—((S)-1,2,3,4-tetrahydronaphthyl-1-)pentanamide] | < 100 |
| O=C1CCC(N2Cc3c(CCCCN4CCN(c5ccc(Cl)cc5)CC4)cccc3C2=O)C(=O)N1 (stereo not shown) [Example 41, 3-(4-(4-(4-(4-chlorophenyl)piperazine-1-)butyl)-1-oxoisoindoline-2-)piperidine-2,6-dione] | < 100 |
| O=C1CCC(N2Cc3c(OCCCN4CCC5(CC4)OCc4ccc(Cl)cc45)cccc3C2=O)C(=O)N1 (stereo not shown) [Example 138, 3-(4-(3-(6-chloro-3H-spiro[isobenzofuran-1,4′-piperidine]-1′-)propoxy)-1-oxoisoindoline-2-)piperidine-2,6-dione] | < 100 |
| O=C1CCC(N2Cc3c(CCCCCN4CCC(c5ccccc5)CC4)cccc3C2=O)C(=O)N1 (stereo not shown) [Example 20, 3-(1-oxo-4-(5-(4-phenylpiperidine-1-)pentyl)indoline-2-)piperidine-2,6-dione] | > 20000 |
| CC(=O)N[C@@H](CCCc1cccc2c1CN(C1CCC(=O)NC1=O)C2=O)C(=O)Nc1ccc(C)c(Cl)c1 (stereo partly drawn) [Example 202, (2S)-2-acetylamino-N-(3-chloro-4-methylphenyl)-5-(2-(2,6-dioxopiperidine-3-)-1-oxoisoindoline-4-)pentanamide] | < 100 |
| O=C1CCC(N2Cc3c(CCCCCOc4ccnc5ccsc45)cccc3C2=O)C(=O)N1 (stereo not shown) [Example 9, 3-(1-oxo-4-(5-(thieno[3,2-b]pyridine-7-oxy)pentyl)isoindoline-2-)piperidine-2,6-dione] | < 100 |
| COc1cccc(C2(C#N)CCN(CCCCc3cccc4c3CN(C3CCC(=O)NC3=O)C4=O)CC2)c1OC (stereo not shown) [Example 259, 4-(2,3-dimethoxyphenyl)-1-(4-(2-(2,6-dioxopiperidin-3-yl)-1-oxoisoindoline-4-yl)butyl)piperidine-4-carbonitrile] | 100 to 1000 |
| N#CC1(c2cc(Cl)cc(Cl)c2)CCN(CCCCc2cccc3c2CN(C2CCC(=O)NC2=O)C3=O)CC1 (stereo not shown) [Example 244, 4-(3,5-dichlorophenyl)-1-(4-(2-(2,6-dioxopiperidine-3-yl)-1-oxoisoindoline-4-yl)butyl)piperidine-4-carbonitrile] | 100 to 1000 |
| O=C1CCC(N2Cc3c(OCCCCN4CCC5(CC4)OCc4ccccc45)cccc3C2=O)C(=O)N1 (stereo not shown) [Example 126, 3-(4-(4-(2H-spiro[benzofuran-3,4′-piperidine]-1′-)butoxy)-1-oxoisoindoline-2-)piperidine-2,6-dione] | < 100 |
| N#CC1(c2ccccc2F)CCN(CCCOc2cccc3c2CN(C2CCC(=O)NC2=O)C3=O)CC1 (stereo not shown) [Example 61, 1-(3-((2-(2,6-dioxopiperidine-3-)-1-oxoisoindoline-4-)oxy)propyl)-4-(2-fluorophenyl)piperidine-4-carbonitrile] | 100 to 1000 |
| O=C1CCC(N2Cc3c(CCCCCN4CCC5(CC4)OCc4ccccc45)cccc3C2=O)C(=O)N1 (stereo not shown) [Example 123, 3-(4-(5-(3H-spiro[isobenzofuran-1,4′-piperidine]-1′-)pentyl)-1-oxoisoindoline-2-)piperidine-2,6-dione] | < 100 |
| COc1ccccc1N1CCN(CCCCCc2cccc3c2CN(C2CCC(=O)NC2=O)C3=O)CC1 (stereo not shown) [Example 19, 3-(4-(5-(4-(2-methoxyphenyl)piperazine-1-)pentyl)-1-oxoindoline-2-)piperidine-2,6-dione] | < 100 |
| N#CC1(c2ccc(Cl)cc2)CCN(CCCCCc2cccc3c2CN(C2CCC(=O)NC2=O)C3=O)CC1 (stereo not shown) [Example 49, 4-(4-chlorophenyl)-1-(5-(2-(2,6-dioxopiperidine-3-)-1-oxoisoindoline-4-)pentyl) piperidine-4-carbonitrile] | < 100 |
| O=C1CCC(N2Cc3c(CCCCN4CCN(c5ccc(C(F)(F)F)cc5)CC4)cccc3C2=O)C(=O)N1 (stereo not shown) [Example 45, 3-(1-oxo-4-(4-(4-(4-trifluoromethylphenyl)piperazine-1-)butyl)isoindoline-2-)piperidine-2,6-dione] | < 100 |
| N#CC1(c2cc(Cl)cc(Cl)c2)CCN(CCCCCc2cccc3c2CN(C2CCC(=O)NC2=O)C3=O)CC1 (stereo not shown) [Example 251, 4-(3,5-dichlorophenyl)-1-(5-(2-(2,6-dioxopiperidin-3-yl)-1-oxoisoindoline-4-yl)pentyl)piperidine-4-carbonitrile] | 100 to 1000 |
| O=C1CCC(N2Cc3c(CCCCN4CCN(c5cc(Cl)cc(Cl)c5)CC4)cccc3C2=O)C(=O)N1 (stereo not shown) [Example 223, 3-(4-(4-(4-(3,5-dichlorophenyl)piperazine-1-yl)butyl)-1-oxoisoindoline-2-yl) piperidine-2,6-dione] | < 100 |

| Compound | IC50 [nM] |
| --- | --- |
| O=C1CCC(N2Cc3c(CCCCCN4CCC5(CC4)OCCc4ccccc45)cccc3C2=O)C(=O)N1 (stereo not shown) [Example 137, 3-(1-oxo-4-(5-(spiro[isochroman-1,4′-piperidine]-1′-)pentyl)isoindoline-2-)piperidine-2,6-dione] | 100 to 1000 |
| O=C1CCC(N2Cc3c(CCCCCN4CCC5(CC4)OCc4ccc(Cl)cc45)cccc3C2=O)C(=O)N1 (stereo not shown) [Example 127] | 100 to 1000 |
| N#CC1(c2ccc(Cl)cc2)CCN(CCCOc2cccc3c2CN(C2CCC(=O)NC2=O)C3=O)CC1 (stereo not shown) [Example 59, 4-(4-chlorophenyl)-1-(3-((2-(2,6-dioxopiperidine-3-)-1-oxoisoindoline-4-)oxy)propyl)piperidine-4-carbonitrile] | < 100 |
| CC(=O)N[C@@H](CCCc1cccc2c1CN(C1CCC(=O)NC1=O)C2=O)C(=O)Nc1ccccc1-c1cccnc1 (stereo partly drawn) [Example 196, (2S)-2-acetylamino-5-(2-(2,6-dioxopiperidine-3-)-1-oxoisoindoline-4-)-N-(2-(pyridine-3-)phenyl)pentanamide] | 1000 to 20000 |
| Cc1ccc2c(c1)C1(CCN(CCCCCc3cccc4c3CN(C3CCC(=O)NC3=O)C4=O)CC1)OC2 (stereo not shown) [Example 157, 3-(4-(5-(6-methyl-3H-spiro[isobenzofuran-1,4′-piperidine]-1-)pentyl)-1-oxoisoindoline-2-)piperidine-2,6-dione] | < 100 |
| N#CC1(c2cccc(Cl)c2)CCN(CCCCCCc2cccc3c2CN(C2CCC(=O)NC2=O)C3=O)CC1 (stereo not shown) [Example 100, 4-(3-chlorophenyl)-1-(6-(2-(2,6-dioxopiperidine-3-)-1-oxoisoindoline-4-)hexyl)piperidine-4-carbonitrile] | < 100 |
| O=C1CCC(N2Cc3c(OCCCCOc4ccnc5ccccc45)cc(F)cc3C2=O)C(=O)N1 (stereo not shown) [Example 211, 3-(6-fluoro-1-oxy-4-(4-(quinoline-4-oxy)butoxy)-1-oxoisoindoline-2-)piperidine-2,6-dione] | < 100 |
| O=C1CCC(N2Cc3c(CCCCCN4CCC5(CC4)OC(=O)Nc4ccccc45)cccc3C2=O)C(=O)N1 (stereo not shown) [Example 125, 3-(1-oxo-4-(5-(2-oxo-1,2-dihydrospiro[benzo[d][1,3]oxazine-4,4′-piperidine]-1′-)pentyl)isoindoline-2-)piperidine-2,6-dione] | 100 to 1000 |
| COc1ccccc1N1CCN(CCCCc2cccc3c2CN(C2CCC(=O)NC2=O)C3=O)CC1 (stereo not shown) [Example 224, 3-(4-(4-(4-(2-methoxyphenyl)piperazine-1-yl)butyl)-1-isoindoline-2-yl)piperidine-2,6-dione] | < 100 |
| N#CC1(c2ccc(Cl)cc2)CCN(C(=O)CCCOc2cccc3c2CN(C2CCC(=O)NC2=O)C3=O)CC1 (stereo not shown) [Example 84, 4-(4-chlorophenyl)-1-(4-((2-(2,6-dioxopiperidine-3-)-1-oxoisoindoline-4-)oxy)butyryl)piperidine-4-carbonitrile] | 100 to 1000 |
| O=C1CCC(N2Cc3c(CCCCCOc4cc(C(F)(F)F)nc5ccccc45)cccc3C2=O)C(=O)N1 (stereo not shown) [Example 13, 3-(1-oxo-4-(5-((2-(trifluoromethyl)quinoline-4-)oxy)pentyl)isoindoline-2-)piperidine-2,6-ditone] | < 100 |
| C[C@]1(N2C(=O)c3cccc(OCCCN4CCC(C#N)(c5ccccc5OC(F)(F)F)CC4)c3C2=O)CCC(=O)NC1=O [Example 58, (S)-1-(3-((2-(3-methyl-2,6-dioxopiperidine-3-)-1,3-dioxoisoindoline-4-)oxy)propyl)-4-(2-(trifluoromethoxy)phenyl)piperidine-4-carbonitrile] | 1000 to 20000 |
| O=C1CCC(N2Cc3c(CCCCCN4CCN(c5cccc(C(F)(F)F)c5)CC4)cccc3C2=O)C(=O)N1 (stereo not shown) [Example 23, 3-(1-oxo-4-(5-(4-(3-trifluoromethylphenyl)piperazine-1-)pentyl)isoindoline-2-)piperidine-2,6-dione] | < 100 |
| O=C1CCC(N2Cc3c(OCCCCCCOc4ccnc5ccccc45)cccc3C2=O)C(=O)N1 (stereo not shown) [Example 14, 3-(1-oxo-4-((6-(quinoline-4-oxy)hexyl)oxy)isoindoline-2-)piperidine-2,6-dione] | < 100 |
| N#CC1(c2cccc(OC(F)(F)F)c2)CCN(CCOc2cccc3c2CN(C2CCC(=O)NC2=O)C3=O)CC1 (stereo not shown) [Example 66, 1-(2-((2-(2,6-dioxopiperidine-3-)-1-oxoisoindoline-4-)oxy)ethyl)-4-(3-(trifluoromethoxy)phenyl)piperidine-4-carbonitrile] | 100 to 1000 |
| O=C1CCC(N2Cc3c(CCCCN4CCN(c5cc(Cl)ccc5Cl)CC4)cccc3C2=O)C(=O)N1 (stereo not shown) [Example 229, 3-(4-(4-(4-(2,5-dichlorophenyl)piperazine-1-yl)butyl)-1-oxoisoindoline-2-yl) piperidine-2,6-dione] | 100 to 1000 |
| COc1ccc(C2(C#N)CCN(CCCCc3cccc4c3CN(C3CCC(=O)NC3=O)C4=O)CC2)c(Cl)c1 (stereo not shown) [Example 245, 4-(2-chloro-4-methoxyphenyl)-1-(4-(2-(2,6-dioxopiperidine-3-yl)-1-oxoisoindoline-4-yl)butyl)piperidine-4-carbonitrile] | 100 to 1000 |
